The values below come from ChEMBL document CHEMBL3351607, “Derivatives of imidazotriazine and pyrrolotriazine C-nucleosides as potential new anti-HCV agents” (Bioorg Med Chem Lett, 2014).

Some results are limits rather than exact numbers.

Data set [1] can be described thus: Cytotoxicity against human HuH7 cells. The class given is cell-based, Huh-7.
The next data set has as its system Hepatitis C virus. Nature of the data set: Antiviral activity against Hepatitis C virus genotype 1b in human HuH7 cells assessed as inhibition of viral replication after 72 hrs by luciferase reporter assay. The class given is functional, cell-based, Hepacivirus hominis. To be noted: Huh-7, 72 h. A general note: A reporter such as luciferase makes a cellular process visible.

The nature of data set [2]: Therapeutic index, ratio of CC50 for human HuH7 cells to EC50 for Hepatitis C virus genotype 1b in human HuH7 cells. To be noted: read-out: Ratio CC50/EC50. Format: cell-based, Huh-7.

The term CC50 denotes the concentration giving 50% cytotoxicity. A high value points to better tolerance by the cells. Take `C[C@@]1(O)[C@H](O)[C@@H](CO)O[C@H]1c1cnc2c(N)ncnn12`: half-maximal cytotoxicity in data set [1] (CC50) was put at 26 µM.

`C[C@@]1(O)[C@H](O)[C@@H](CO)O[C@H]1c1ccc2c(N)ncnn12` gave a CC50 in data set [1] above 100 µM.

In general, EC50 refers to the concentration needed to bring the measured effect to its halfway point. For the molecule `C[C@@]1(O)[C@H](O)[C@@H](CO)O[C@H]1c1cc(F)c2c(N)ncnn12`, in the data set with Hepatitis C virus, the EC50 is 3.1 µM. Further, the cytotoxic concentration (CC50) in data set [1] was above 100 µM. Moreover, the selectivity ratio in data set [2] is above 30.

As for `C[C@@]1(O)[C@H](O)[C@@H](CO)O[C@H]1c1cc(Cl)c2c(N)ncnn12`, in the data set with Hepatitis C virus, the EC50 turned out to be 0.26 µM. The molecule further registered a CC50 in data set [1] of 6.5 µM.

With `C[C@@]1(O)[C@H](O)[C@@H](CO)O[C@H]1c1cc(C#N)c2c(N)ncnn12`, the EC50 in the data set on Hepatitis C virus was 0.99 µM. For the same molecule, half-maximal cytotoxicity in data set [1] (CC50) was put at 22.1 µM.

Take `C[C@@]1(O)[C@H](O)[C@@H](CO)O[C@H]1c1cc(C(N)=O)c2c(N)ncnn12`: the EC50 with Hepatitis C virus was 0.0062 µM. Besides, it took 0.37 µM to reach half-maximal cytotoxicity in data set [1] (CC50).

Turning to `C#Cc1cc([C@@H]2O[C@H](CO)[C@@H](O)[C@@]2(C)O)n2ncnc(N)c12`, in the data set with Hepatitis C virus, the EC50 amounted to 0.17 µM. It took 0.93 µM to reach half-maximal cytotoxicity in data set [1] (CC50).

`C[C@@]1(O)[C@H](O)[C@@H](CO)O[C@H]1c1cc(-c2ncco2)c2c(N)ncnn12`: in the data set with Hepatitis C virus, the EC50 stood at 1.8 µM. Besides, the 50% cytotoxic concentration (CC50) in data set [1] was 35.7 µM.

Turning to `C[C@@]1(O)[C@H](O)[C@@H](CO)O[C@H]1c1cc(-c2ncc[nH]2)c2c(N)ncnn12`, the EC50 in the data set on Hepatitis C virus turned out to be 0.69 µM. In data set [1], this molecule had a CC50 of 27.1 µM.

As for `C[C@@]1(O)[C@H](O)[C@@H](CO)O[C@H]1c1c(F)cc2c(N)ncnn12`, the half-maximal effective concentration (EC50) with Hepatitis C virus was above 50 µM. Further, in data set [1], the CC50 is above 100 µM.

For `C[C@@]1(O)[C@H](O)[C@@H](CO)O[C@H]1c1ccc2c(N)nc(N)nn12`, the EC50 with Hepatitis C virus is above 50 µM. The molecule further registered a half-maximal cytotoxic concentration (CC50) in data set [1] above 100 µM.

As for `C[C@@]1(O)[C@H](O)[C@@H](CO)O[C@H]1c1cnc2c(N)nc(Cl)nn12`, the EC50 in the data set on Hepatitis C virus was above 50 µM. The 50% cytotoxic concentration (CC50) in data set [1] was above 100 µM.

For the molecule `C[C@@]1(O)[C@H](O)[C@@H](CO)O[C@H]1c1cnc2c(N)nc(F)nn12`, the concentration giving a half-maximal response (EC50) with Hepatitis C virus was above 50 µM. Also, the half-maximal cytotoxic concentration (CC50) in data set [1] is above 100 µM.

For the molecule `C[C@@]1(O)[C@H](O)[C@@H](CO)O[C@H]1c1cnc2c(N)nc(N)nn12`, in the data set on Hepatitis C virus, the half-maximal effective concentration (EC50) was above 50 µM. The same molecule displayed a CC50 in data set [1] above 100 µM.
